Data published in patent US5618948A, “Process for preparing an enantiomer of a carbazole derivative” (SmithKline Beecham p.l.c., priority 1995, dated 1997).

Target: T1, 5-HT1 -like Receptor (Oryctolagus cuniculus, UniProt P49144)
T1 construct: the basilar artery removed with the aid of a dissecting microscope; from tissue; host or cells: rabbit basilar artery ring segments, endothelium removed
Experiment: 5-HT1-like Receptor Screen, rabbit isolated basilar artery (isometric tension, cumulative concentration-effect curves)
Format: cell-based
Conditions: endothelium removed, in presence of ascorbate, indomethacin, cocaine, ketanserin and prazosin
Description: 5-HT1 -like Receptor Screen
Experiments were performed in intracranial arteries from rabbit isolated basilar artery in a similar method to that described previously (Parsons and Whalley, 1989, Eur J Pharmacol 174, 189-196.)
In brief, rabbits were killed by overdose with anaesthetic (sodium pentobarbitone). The whole brain was quickly removed and immersed in ice cold modified Kreb's solution and the basilar artery removed with the aid of a dissecting microscope. The Krebs solution was of the following composition (mM) Na^+ (120); K^+ (5); Ca^2+ (2.25)Mg^2+(0.5); Cl^- (98.5); SO4^2- (1); ETDA (0.04), equilibrated with 95% O2 /5% CO2. The endothelium was removed by a gentle rubbing of the lumen with a fine metal wire. Arteries were then cut into ring segments (ca 4-5 mm wide) and set up for recording of isometric tension in 50 ml tissue baths in modified Krebs solution with the additional supplement of (mM); […] (20); fumarate (10); pyruvate (5); L-glutamate (5) and glucose (10). The arteries were then placed under a resting force of 3-4 mN maintained at 37° C. and the solution bubbled with 95% O2 /5% CO2.
After tests for initial reactivity with 90 mM KCl depolarising solution and for lack of acetylcholine-induced relaxation of 5-HT ([…]) precontraction, cumulative concentration-effect curves ([…]) to 5-HT were constructed in the presence of ascorbate […], cocaine […], indomethacin […], ketanserin […] and prazosin […].
Following a 45-60 min wash period, cumulative concentration-effect curves to the test compounds or 5-HT (as a time match control) were constructed in the presence of ascorbate, indomethacin, cocaine, ketanserin and prazosin.
R-(+)-6-carboxamido-3-N-methylamino-1,2,3,4-tetrahydrocarbazole; (compound A)
S-(-)-6-carboxamido-3-N-methylamino-1,2,3,4-tetrahydrocarbazole; (compound B)
R-(+)-6-carboxamido-3-N-ethylamino-1,2,3,4-tetrahydrocarbazole; (compound C)

T1 sequence (P49144 whole entry): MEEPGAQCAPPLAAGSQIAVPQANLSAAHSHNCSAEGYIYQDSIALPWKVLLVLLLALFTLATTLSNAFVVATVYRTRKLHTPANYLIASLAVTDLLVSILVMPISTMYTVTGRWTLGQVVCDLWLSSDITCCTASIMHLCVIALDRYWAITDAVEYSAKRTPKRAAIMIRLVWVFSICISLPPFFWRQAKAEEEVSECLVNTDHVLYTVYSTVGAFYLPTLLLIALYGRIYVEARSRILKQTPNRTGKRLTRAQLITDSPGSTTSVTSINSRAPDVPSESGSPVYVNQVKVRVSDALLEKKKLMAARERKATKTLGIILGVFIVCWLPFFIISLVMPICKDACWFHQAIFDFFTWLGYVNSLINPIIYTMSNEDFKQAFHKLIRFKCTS

EC50 [nM] | SMILES
30 | CN[C@@H]1CCc2[nH]c3ccc(C(N)=O)cc3c2C1 [Compound A, R-(+)-6-carboxamido-3-N-methylamino-1,2,3,4-tetrahydrocarbazole]
> 2000 | CN[C@H]1CCc2[nH]c3ccc(C(N)=O)cc3c2C1 [Compound B, S-(-)-6-carboxamido-3-N-methylamino-1,2,3,4-tetrahydrocarbazole]

SMILES | EC50 [nM]
CCN[C@@H]1CCc2[nH]c3ccc(C(N)=O)cc3c2C1 [Compound C, R-(+)-6-carboxamido-3-N-ethylamino-1,2,3,4-tetrahydrocarbazole] | 160
